The test system of this test is dopamine release. The test can be described thus: Release of stored dopamine from PFVMAA cells. The class given is cell-based, rat. Conditions: 20 μM A23187 in physiological media, 20 minutes. The protocol:
FIG. 3A and FIG. 3B. Release of stored dopamine from PFVMAA. (FIG. 3A) Time course of dopamine release from PFVMAA cells that were preincubated with 1 μM of L-DOPA for 2 hours to store dopamine (intracellular: open bar). After pre-incubation, the media was replaced with fresh media without L-DOPA and dopamine levels in the media (solid bar) were measured at one hour intervals. (FIG. 3B) The dopamine levels in the media (solid bar) and in the cell pellets (open bars) of PFVMAA cells in different calcium conditions. Cells were preincubated with 1 μM L-DOPA in the media for 3 hours, which were replaced with fresh physiological media (control), physiological media with 20 μM A23187 (Sigma), or by calcium-free media with 10 mM EGTA for 20 minutes of further incubation. Data represent the mean±SEM (n=3). n.d., nondetectable levels. n.s., no significant, * p<0.01, Student t-test analysis.
Catecholamine measurements were done in DMEM media (1 ml in each well) except for the experiments on Ca^++ effect which were done in physiological incubation medium consisting of 135 mM NaCl, 3 mM KCl, 2 mM CaCl2, 2 mM MgCl2, 10 mM glucose, 200 μM ascorbic acid, and 10 mM HEPES, pH 7.3.
To investigate the mechanism of dopamine release in the PFVMAA cells, intracellular calcium was manipulated by using calcium-free media and calcium ionophore. […]

Each structure is given as a SMILES string.

On to `CNc1ccc2oc(C[C@H]3O[C@@]4(CC[C@H]3C)O[C@H]([C@H](C)C(=O)c3ccc[nH]3)[C@H](C)C[C@H]4C)nc2c1C(=O)O` [calcium ionophore, A23187], for which the “effect on dopamine release from PFVMAA cells” value is listed as “trend for increased release of dopamine”.

(Values after patent US7115258B2, “Vesicular monoamine transporter gene therapy in parkinson's disease” (priority 1998, dated 2006).)
